Experimental data from PubChem BioAssay AID651581 (Sanford-Burnham Center for Chemical Genomics, 2012).
The source made the active and inactive calls. How the calls were made is not given here.

Tests used:
[1] = target: Endothelial PAS domain-containing protein 1 (Homo sapiens) (UniProt Q99814); assay: potency against HIF reporters across cell lines – luminescence, panel, selectivity assay for HIF-2a inhibitor project, dose response (AID 651581); conditions: human cell HIF reporter
[2] = target: Hypoxia-inducible factor 1-alpha (Homo sapiens) (UniProt Q16665); assay: as above; conditions: human cell HIF reporter, HIF-1a
Chain of Hypoxia-inducible factor 1-alpha (Homo sapiens) (Q16665 whole entry, looked up): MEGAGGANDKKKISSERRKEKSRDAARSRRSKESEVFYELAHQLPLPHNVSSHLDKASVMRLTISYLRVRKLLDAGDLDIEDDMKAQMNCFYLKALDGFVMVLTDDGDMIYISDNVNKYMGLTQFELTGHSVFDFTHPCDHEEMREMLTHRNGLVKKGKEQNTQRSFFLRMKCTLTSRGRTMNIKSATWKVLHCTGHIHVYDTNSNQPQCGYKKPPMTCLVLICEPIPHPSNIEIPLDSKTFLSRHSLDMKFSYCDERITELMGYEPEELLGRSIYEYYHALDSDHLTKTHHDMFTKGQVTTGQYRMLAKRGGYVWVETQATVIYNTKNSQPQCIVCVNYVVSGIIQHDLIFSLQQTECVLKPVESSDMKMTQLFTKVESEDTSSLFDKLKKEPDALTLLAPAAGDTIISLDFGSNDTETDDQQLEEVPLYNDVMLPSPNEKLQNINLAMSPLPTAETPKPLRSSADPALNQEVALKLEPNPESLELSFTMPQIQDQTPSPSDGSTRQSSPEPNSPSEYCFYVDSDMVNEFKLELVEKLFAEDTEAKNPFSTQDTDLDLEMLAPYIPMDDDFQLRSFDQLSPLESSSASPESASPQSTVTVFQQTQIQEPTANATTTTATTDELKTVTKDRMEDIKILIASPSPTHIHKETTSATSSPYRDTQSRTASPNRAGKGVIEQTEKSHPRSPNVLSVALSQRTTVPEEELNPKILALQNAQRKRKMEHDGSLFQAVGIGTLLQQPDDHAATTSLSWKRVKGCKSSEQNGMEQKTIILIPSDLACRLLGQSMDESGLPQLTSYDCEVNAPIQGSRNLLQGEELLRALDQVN

Row | SMILES | IC50 ([1]; HIF-2a PANC, mean of runs) | IC50 ([1]; HIF-2a PANC, run 1) | IC50 ([1]; HIF-2a PANC, run 2) | IC50 ([1]; HIF-2a, mean of runs) | IC50 ([1]; HIF-2a, run 1) | IC50 ([1]; HIF-2a, run 2) | IC50 ([2]; mean of runs) | IC50 ([2]; run 1) | IC50 ([2]; run 2)
1 | CN(C)S(=O)(=O)c1cccc(NC(=O)CSc2cccc3cccnc23)c1 | > 99 µM (inactive) | > 99 µM | > 99 µM | 5.4 µM | 5.2 µM | 5.6 µM | 34.4 µM | 31.1 µM | 37.7 µM
2 | CCOC(=O)c1cccc(NC(=O)/C=C/c2ccc3c(c2)OCO3)c1 | – | 42.7 µM | > 99 µM | inactive | 18.6 µM | 14.7 µM | inactive | 25.4 µM | 27.5 µM
3 | O=C(OCC(F)(F)F)c1cccc(COc2ccc3ccccc3c2)c1 | – | > 99 µM | < 30 µM | 2.86 µM | 2.92 µM | 2.79 µM | – | > 99 µM | > 99 µM
4 | O=C(O)c1ccc(N/N=C/c2ccc(C(F)(F)F)cc2)cc1 | inactive | 75.9 µM | 8.53 µM | 9.84 µM | 9.59 µM | 10.1 µM | inactive | 22.5 µM | 21.7 µM

Now those with a lower IC50 ([1]; HIF-2a PANC, run 1), led by results:

Row | IC50 ([1]; HIF-2a PANC, mean of runs) | IC50 ([1]; HIF-2a PANC, run 1) | IC50 ([1]; HIF-2a PANC, run 2) | IC50 ([1]; HIF-2a, mean of runs) | IC50 ([1]; HIF-2a, run 1) | IC50 ([1]; HIF-2a, run 2) | IC50 ([2]; mean of runs) | IC50 ([2]; run 1) | IC50 ([2]; run 2) | SMILES
5 | 1.72 µM | 1.8 µM | 1.64 µM | 4.13 µM | 4.63 µM | 3.63 µM | 44.7 µM | 72.4 µM | 17 µM | Cc1c(CCC(=O)N2CCC[C@H]2C(=O)O)c(=O)oc2c(C)c3oc4c(c3cc12)CCCC4
6 | inactive | 20.7 µM | 51.9 µM | inactive | 8.84 µM | 11.9 µM | inactive | 21.8 µM | 31.4 µM | CCOC(=O)c1ccc(Oc2nc(NC(C)(C)C)nc(N(C)C)n2)cc1
